In ChEMBL document CHEMBL1201862, “PubChem BioAssay data set” (2004):
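Cultured in 96-well plates, cells were exposed to test compound for 48 hours across five concentrations. Abbreviation: GI50, concentration required for 50% inhibition of growth.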 The source made the active and inactive calls. Rule as the data show it: active = GI50 up to about 1.1 µM and inactive = higher.

What was measured:
Experiment in all cases: inhibition of tumour cell growth, NCI panel, 48 h
[1] = tested on: SK-OV-3
[2] = tested on: T47D
[3] = tested on: KM12
[4] = tested on: SF-295
[5] = tested on: NCI-H226
[6] = tested on: SNB-75
[7] = tested on: EKVX
[8] = tested on: U-251
[9] = tested on: SN12C
[10] = tested on: CAKI-1
[11] = tested on: MCF7
[12] = tested on: HOP-62
[13] = tested on: TK-10
[14] = tested on: SW-620
[15] = tested on: BT-549
[16] = tested on: OVCAR-5
[17] = tested on: 786-0

Compound	GI50 [1]	GI50 [2]	GI50 [3]	GI50 [4]	GI50 [5]	GI50 [6]	GI50 [7]	GI50 [8]	GI50 [9]	GI50 [10]	GI50 [11]	GI50 [12]	GI50 [13]	GI50 [14]	GI50 [15]	GI50 [16]	GI50 [17]
COC(=O)c1cc2c(n1S(=O)(=O)c1ccc(C)cc1)C(=O)C(=O)c1[nH]cc(C(=O)OCc3ccccc3)c1-2	0.871 µM (active)	0.216 µM (active)	0.231 µM (active)	0.12 µM (active)	0.199 µM (active)	0.147 µM (active)	0.279 µM (active)	0.172 µM (active)	0.08 µM (active)	0.355 µM (active)	0.0668 µM (active)	0.149 µM (active)	0.716 µM (active)	0.0514 µM (active)	0.183 µM (active)	0.575 µM (active)	0.23 µM (active)
CCCCCCNCCCNc1c2ccccc2nc2cccc([N+](=O)[O-])c12	0.051 µM (active)	0.0369 µM (active)	0.0127 µM (active)	0.0188 µM (active)	0.0547 µM (active)	0.0485 µM (active)	0.0246 µM (active)	0.0118 µM (active)	0.0173 µM (active)	0.0548 µM (active)	0.00376 µM (active)	0.0245 µM (active)	0.0621 µM (active)	0.00481 µM (active)	0.11 µM (active)	0.0315 µM (active)	0.00948 µM (active)
Cn1c(-c2cccs2)cc(-c2ccccc2)c1-c1cccs1	36.1 µM (inactive)	> 100 µM (inactive)	74 µM (inactive)	17 µM (inactive)	45.4 µM (inactive)	> 100 µM (inactive)	22.7 µM (inactive)	47.8 µM (inactive)	> 100 µM (inactive)	93.5 µM (inactive)	3.58 µM (inactive)	18.2 µM (inactive)	> 100 µM (inactive)	> 100 µM (inactive)	> 100 µM (inactive)	88.5 µM (inactive)	35.4 µM (inactive)
Cc1ccccc1C(=O)N1CCc2c([nH]c3ccccc23)C1	32.4 µM (inactive)	21.9 µM (inactive)	25.9 µM (inactive)	29.1 µM (inactive)	21.8 µM (inactive)	20.6 µM (inactive)	24.9 µM (inactive)	18 µM (inactive)	17.2 µM (inactive)	24.4 µM (inactive)	21 µM (inactive)	33.8 µM (inactive)	28.2 µM (inactive)	27.6 µM (inactive)	18.7 µM (inactive)	19.5 µM (inactive)	22.9 µM (inactive)
C[C@H]1[C@H](C)N(Cc2ccccc2)P(=O)(C(O)/C=C/c2ccccc2)N1Cc1ccccc1 (some centres not stated)	9.68 µM (inactive)	6.27 µM (inactive)	8.91 µM (inactive)	6.95 µM (inactive)	7.52 µM (inactive)	6.95 µM (inactive)	7.67 µM (inactive)	5.11 µM (inactive)	4.6 µM (inactive)	8.28 µM (inactive)	8.3 µM (inactive)	8.41 µM (inactive)	7.01 µM (inactive)	9.25 µM (inactive)	12 µM (inactive)	6.61 µM (inactive)	5.32 µM (inactive)
COC(=O)c1ccccc1C1CN=NC12Cc1c(ccc3c1CCC3)C2=O (configuration not stated)	> 100 µM (inactive)	54 µM (inactive)	38.4 µM (inactive)	47.3 µM (inactive)	41.5 µM (inactive)	51.8 µM (inactive)	45.9 µM (inactive)	41 µM (inactive)	95.3 µM (inactive)	> 100 µM (inactive)	50.9 µM (inactive)	> 100 µM (inactive)	> 100 µM (inactive)	65.3 µM (inactive)	92.7 µM (inactive)	84.3 µM (inactive)	> 100 µM (inactive)
COc1ccc(CCCCNCc2cccc(CNCCCCc3ccc(OC)cc3)c2)cc1	2.08 µM (inactive)	2.06 µM (inactive)	1.77 µM (inactive)	1.93 µM (inactive)	0.385 µM (active)	1.76 µM (inactive)	1.81 µM (inactive)	1.85 µM (inactive)	2.04 µM (inactive)	1.8 µM (inactive)	1.54 µM (inactive)	2.19 µM (inactive)	2.07 µM (inactive)	2.23 µM (inactive)	1.81 µM (inactive)	2.09 µM (inactive)	2.1 µM (inactive)
O=C(O)CC1NC(/C(=C/c2ccccc2)NC(=O)c2ccccc2)OC1=O (configuration not stated)	55.3 µM (inactive)	> 100 µM (inactive)	17.4 µM (inactive)	38.1 µM (inactive)	21.8 µM (inactive)	29 µM (inactive)	39.6 µM (inactive)	18.4 µM (inactive)	43.3 µM (inactive)	> 100 µM (inactive)	47.2 µM (inactive)	18.9 µM (inactive)	> 100 µM (inactive)	19.5 µM (inactive)	19.9 µM (inactive)	76 µM (inactive)	29.4 µM (inactive)
COc1cc2cc(C(=O)N3CC(CCl)c4ccc([N+](C)(C)Cc5ccccc5[N+](=O)[O-])cc43)[nH]c2c(OC)c1OC (configuration not stated)	4.51 µM (inactive)	2.31 µM (inactive)	2.24 µM (inactive)	1.47 µM (inactive)	1.48 µM (inactive)	4.09 µM (inactive)	3.78 µM (inactive)	2.18 µM (inactive)	4.05 µM (inactive)	1.01 µM (active)	0.621 µM (active)	2.94 µM (inactive)	2.74 µM (inactive)	2.01 µM (inactive)	1.95 µM (inactive)	2.66 µM (inactive)	1.53 µM (inactive)
COc1ccc2nc3ccc(OC)cc3c([S+]([O-])Cc3ccc([N+](=O)[O-])cc3)c2c1 (configuration not stated)	21.1 µM (inactive)	1.95 µM (inactive)	18.4 µM (inactive)	20.6 µM (inactive)	22.9 µM (inactive)	19.3 µM (inactive)	16.6 µM (inactive)	10.9 µM (inactive)	3.65 µM (inactive)	15.3 µM (inactive)	1.92 µM (inactive)	16.1 µM (inactive)	5.9 µM (inactive)	2.18 µM (inactive)	18.7 µM (inactive)	12.9 µM (inactive)	2.1 µM (inactive)
CC1CCCC(C(O)CC2CC(=O)NC(=O)C2)C1O (configuration not stated)	> 100 µM (inactive)	> 100 µM (inactive)	> 100 µM (inactive)	> 100 µM (inactive)	> 100 µM (inactive)	> 100 µM (inactive)	> 100 µM (inactive)	> 100 µM (inactive)	> 100 µM (inactive)	> 100 µM (inactive)	> 100 µM (inactive)	> 100 µM (inactive)	> 100 µM (inactive)	> 100 µM (inactive)	> 100 µM (inactive)	> 100 µM (inactive)	> 100 µM (inactive)
CC1CCCN(CC(O)CN2CCCc3ccccc32)C1 (configuration not stated)	> 100 µM (inactive)	> 100 µM (inactive)	> 100 µM (inactive)	> 100 µM (inactive)	> 100 µM (inactive)	> 100 µM (inactive)	> 100 µM (inactive)	> 100 µM (inactive)	> 100 µM (inactive)	> 100 µM (inactive)	> 100 µM (inactive)	> 100 µM (inactive)	> 100 µM (inactive)	> 100 µM (inactive)	> 100 µM (inactive)	> 100 µM (inactive)	> 100 µM (inactive)
CC(C)(C)OC(=O)NCCCCC(NC(=O)OCc1ccccc1)C(N)=O (configuration not stated)	> 100 µM (inactive)	> 100 µM (inactive)	> 100 µM (inactive)	> 100 µM (inactive)	> 100 µM (inactive)	> 100 µM (inactive)	82.2 µM (inactive)	> 100 µM (inactive)	> 100 µM (inactive)	> 100 µM (inactive)	> 100 µM (inactive)	> 100 µM (inactive)	> 100 µM (inactive)	> 100 µM (inactive)	> 100 µM (inactive)	> 100 µM (inactive)	> 100 µM (inactive)
COC(=O)C(/C(=N/N)C(=O)Nc1ccc(C)c(C)c1)c1nc2ccc(Cl)cc2nc1O (configuration not stated)	> 100 µM (inactive)	> 100 µM (inactive)	> 100 µM (inactive)	> 100 µM (inactive)	> 100 µM (inactive)	> 100 µM (inactive)	74.5 µM (inactive)	> 100 µM (inactive)	> 100 µM (inactive)	> 100 µM (inactive)	> 100 µM (inactive)	> 100 µM (inactive)	> 100 µM (inactive)	> 100 µM (inactive)	> 100 µM (inactive)	> 100 µM (inactive)	> 100 µM (inactive)
CCOC(=O)CCCN	> 100 µM (inactive)	> 100 µM (inactive)	> 100 µM (inactive)	> 100 µM (inactive)	> 100 µM (inactive)	> 100 µM (inactive)	> 100 µM (inactive)	> 100 µM (inactive)	> 100 µM (inactive)	> 100 µM (inactive)	> 100 µM (inactive)	> 100 µM (inactive)	> 100 µM (inactive)	> 100 µM (inactive)	> 100 µM (inactive)	> 100 µM (inactive)	> 100 µM (inactive)
C=CCOn1c(C=C)nc2c(C)cccc21	2.4 µM (inactive)	1.99 µM (inactive)	3.41 µM (inactive)	5.58 µM (inactive)	5.47 µM (inactive)	3.59 µM (inactive)	13.5 µM (inactive)	1.98 µM (inactive)	3.63 µM (inactive)	2.06 µM (inactive)	2.92 µM (inactive)	3.77 µM (inactive)	2.63 µM (inactive)	3.2 µM (inactive)	5.16 µM (inactive)	7.03 µM (inactive)	2.18 µM (inactive)
